From patent publication US4220714A, “Composition for inhibiting adenylate-kinase and its use” (priority 1977, dated 1980)

Assays:
CK = conditions: AMP at 5 to 10 times the ADP concentration; cited from earlier work
erythrocyte AK = biological target: T1, erythrocyte AK (Homo sapiens, UniProt P00568); assay: CK determination in normal sera without and with added erythrocyte AK; assay type: biochemical; conditions: AMP only at 5 millimols per liter
T1 construct: the haemolysate from human erythrocytes; from tissue; host or cells: human erythrocytes (haemolysate)
T1 sequence (P00568 1-194): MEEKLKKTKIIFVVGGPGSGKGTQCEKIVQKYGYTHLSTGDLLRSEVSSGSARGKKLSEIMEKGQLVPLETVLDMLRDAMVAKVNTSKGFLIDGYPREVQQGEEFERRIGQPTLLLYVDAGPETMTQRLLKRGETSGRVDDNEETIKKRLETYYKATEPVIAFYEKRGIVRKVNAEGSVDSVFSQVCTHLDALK
From the text: Such samples have been analyzed with the method described herein and with that which uses AMP at 5 millimols per liter.

[1] = tested on: creatine kinase from serum; assay: Creatine kinase (CK) activity from serum, coupled HK/G-6-PD reaction at 340 nm; assay type: biochemical, human; conditions: FIG. 3
From the text: Each value represent the average of five independent readings.
All the CK activities were corrected by allowing for the AK activity.
The same samples were used both for AMP and the fluoride. The ordinates report the percentage relative to the inhibition of the creatine kinase and the abscissae indicate the concentrations of AMP, or fluoride, in millimols per liter, in FIG. 3.

adenylate kinase = conditions: erythrocyte AK; agent used alone (AMP without fluoride, fluoride without AMP); FIG. 1, 2
Description: Normal and abnormal sera (from myocardial infarct) and the haemolysate from human erythrocytes were used as sources of CK and of AK.
The AK activity was determined according to the method by Szasz et al. (Clin. Chem., 22, 1806, (1976)). […] A spectrophotometer, Beckman-25 with basin-supporting cradle and thermostat, was used. The reaction temperature for determining both AK and CK was 37° C.

| SMILES | inhibition of the activity of the CK (CK) | excess of CK values of samples with erythrocyte AK over normal samples (erythrocyte AK) | difference in CK activity between normal samples and samples with added erythrocyte AK (erythrocyte AK; P less than 0.01) | inhibition of CK activity ([1]; AMP at 20 millimols per liter) | concentration at which 95% of inhibition of AK is attained (adenylate kinase) | inhibition of CK activity ([1]; fluoride at 25 millimols per liter) |
| --- | --- | --- | --- | --- | --- | --- |
| Nc1ncnc2c1ncn2[C@@H]1O[C@H](COP(=O)(O)O)[C@@H](O)[C@H]1O [AMP, adenosine-5'-monophosphate] | slightly inhibits | about 50% | most significant difference | more than 10% | more than 20 millimols per liter | – |
| [F-].[K+] [fluoride, potassium fluoride] | – | – | – | – | 25 millimols per liter | ≥ 4% |
